In test [1] the target is Histamine H2 receptor (Cavia porcellus) (UniProt P47747). As to the kind of experiment: Evaluated for activity against histamine H2 receptor in guinea pig gastric secretion and represented as alpha. Particulars: Stomach. The class given is tissue-based.
The target is the same in test [2]. Kind of test: Evaluated for activity against histamine H2 receptor in guinea pig gastric secretion and represented as pD2. It counts as tissue-based. Particulars: Stomach.
Test [3] shares this target. As to the kind of experiment: Evaluated for activity against histamine H2 receptor in guinea pig atrium and represented as alpha. Particulars: Cardiac atrium. It counts as tissue-based.
Test [4] shares this target. Kind of test: Evaluated for activity against histamine H2 receptor in guinea pig atrium and represented as intrinsic activity. Conditions: Cardiac atrium.
Test [5] addresses Histamine H3 receptor (Rattus norvegicus) (UniProt Q9QYN8). Kind of test: Evaluated for activity against H3 receptor and represented as %recovery histamine release at a concentration 5 x 10 E -6M.
Target sequence in this assay (Q9QYN8 whole entry, looked up): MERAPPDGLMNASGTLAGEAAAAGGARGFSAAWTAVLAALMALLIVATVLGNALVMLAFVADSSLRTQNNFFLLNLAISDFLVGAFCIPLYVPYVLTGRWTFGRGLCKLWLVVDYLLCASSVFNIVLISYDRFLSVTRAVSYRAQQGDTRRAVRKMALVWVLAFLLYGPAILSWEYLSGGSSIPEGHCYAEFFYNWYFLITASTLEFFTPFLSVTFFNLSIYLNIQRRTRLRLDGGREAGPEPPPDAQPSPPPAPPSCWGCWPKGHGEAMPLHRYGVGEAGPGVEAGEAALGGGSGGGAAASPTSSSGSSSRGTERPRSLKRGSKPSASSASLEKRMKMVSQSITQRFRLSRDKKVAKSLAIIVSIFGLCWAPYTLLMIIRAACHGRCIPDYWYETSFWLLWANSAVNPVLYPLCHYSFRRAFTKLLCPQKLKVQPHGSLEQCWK
Test [6] deals with Histamine H1 receptor (Cavia porcellus) (UniProt P31389). Kind of test: Evaluated for their activity at histamine H1 receptor in guinea pig ileum. It counts as tissue-based.
Sequence of Histamine H1 receptor (Cavia porcellus) (P31389 whole entry): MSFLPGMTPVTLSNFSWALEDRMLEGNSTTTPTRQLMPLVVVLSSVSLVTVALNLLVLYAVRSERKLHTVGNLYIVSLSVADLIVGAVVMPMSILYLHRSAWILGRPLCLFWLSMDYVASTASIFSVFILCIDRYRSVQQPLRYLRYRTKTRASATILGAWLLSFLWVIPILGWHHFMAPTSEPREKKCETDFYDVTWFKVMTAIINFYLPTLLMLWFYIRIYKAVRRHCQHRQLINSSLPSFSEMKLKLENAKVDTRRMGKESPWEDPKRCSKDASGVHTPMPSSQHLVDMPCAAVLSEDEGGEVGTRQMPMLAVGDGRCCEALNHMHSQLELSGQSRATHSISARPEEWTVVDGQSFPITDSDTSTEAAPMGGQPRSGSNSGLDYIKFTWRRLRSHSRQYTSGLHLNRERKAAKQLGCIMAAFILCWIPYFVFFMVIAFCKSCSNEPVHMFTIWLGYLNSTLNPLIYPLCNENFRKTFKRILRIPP
The species named for test [7] is Rattus norvegicus. Kind of test: Evaluated for [3H]HA release at a frequency 33.3 Hz for 2 min at a concentration 10 E -5M. It counts as functional.
The species named for test [8] is Rattus norvegicus. Kind of test: Evaluated for [3H]-HA release at a frequency 33.3 Hz for 2 min at a concentration 10 E -6M. The class given is functional.
For test [9], the species on record is Rattus norvegicus. As to the kind of experiment: Evaluated for [3H]-HA release at a frequency 10 Hz for 2 min at a concentration 10 E -5M. It counts as functional.
For test [10], the species on record is Rattus norvegicus. As to the kind of experiment: Evaluated for [3H]HA release at a frequency 10 Hz for 2 min at a concentration 10 E -6M. The class given is functional.
Test [11] is filed under the species Rattus norvegicus. Kind of test: Evaluated for [3H]HA release at a frequency 10 Hz for 2 min at a concentration 10 E -7M. It counts as functional.
Test [12] is filed under the species Rattus norvegicus. Kind of test: Evaluated for [3H]HA release at a frequency 2 Hz for 2.5 min at a concentration 10 E -6M. It counts as functional.
The species named for test [13] is Rattus norvegicus. Kind of test: Evaluated for [3H]HA release at a frequency 20 Hz for 2 min at a concentration 10 E -5M. The class given is functional.
Test [14] is filed under the species Rattus norvegicus. As to the kind of experiment: Evaluated for [3H]HA release at a frequency 20 Hz for 2 min at a concentration 10 E -6M. It counts as functional.
The species entered for test [15] is Rattus norvegicus. Kind of test: Evaluated for [3H]HA release at a frequency 20 Hz for 2 min at a concentration 10 E -7M. It counts as functional.
In test [16] the target is Histamine H2 receptor (Cavia porcellus) (UniProt P47747). As to the kind of experiment: Evaluated for activity against histamine H2 receptor in guinea pig gastric secretion and represented as intrinsic activity. Particulars: Stomach.
Test [17] addresses Histamine H3 receptor (Rattus norvegicus) (UniProt Q9QYN8). As to the kind of experiment: Evaluated for antagonist activity against histamine H3 receptor and represented as KB. The class given is functional.
Target sequence in this assay (Q9QYN8 whole entry): as the sequence (Q9QYN8 whole entry, looked up) above
The target of test [18] is Histamine H2 receptor (Cavia porcellus) (UniProt P47747). Kind of test: Evaluated for activity at Histamine H2 receptor in guinea pig ileum. It counts as tissue-based.
The target of test [19] is Histamine H1 receptor (Cavia porcellus) (UniProt P31389). Kind of test: Evaluated for activity at Histamine H1 receptor in guinea pig ileum. The class given is tissue-based.
For test [20], the species on record is Rattus norvegicus. Kind of test: Relative inhibition of [3H]histamine release from pre-loaded slices of rat cerebral cortex. It counts as functional.
The target in test [21] is Histamine H2 receptor (Cavia porcellus) (UniProt P47747). Kind of test: Evaluated for antagonist activity against histamine H2 receptor and represented as KB. It counts as functional.
Test [22] concerns the target Histamine H3 receptor (Rattus norvegicus) (UniProt Q9QYN8). Kind of test: Evaluated for antagonist activity against histamine H3 receptor and represented as KB. It counts as functional.
Target sequence in this assay (Q9QYN8 whole entry): as the sequence (Q9QYN8 whole entry, looked up) above
Test [23] concerns the target Histamine H3 receptor (Cavia porcellus) (UniProt Q9JI35). As to the kind of experiment: (§1) Evaluated for antagonist activity against Histamine H3 receptor and represented as KB. The class given is functional.
The species entered for test [24] is Rattus norvegicus. Kind of test: Evaluated for inhibition of [3H]histamine release from preloaded slices and is represented as pD2. It counts as functional.
Test [25] has as its target T1, Histamine H3 receptor (Rattus norvegicus, UniProt Q9QYN8). The test is described as §1. It counts as functional.
In a further test the target is Histamine H2 receptor (Cavia porcellus, UniProt P47747). As to the kind of experiment: Evaluated for activity against Histamine H2 receptor in guinea pig atrium and represented pA2. The class given is tissue-based, Cardiac atrium. Particulars: read-out: pA2 (converted).
Sequence of Histamine H2 receptor (P47747 whole entry): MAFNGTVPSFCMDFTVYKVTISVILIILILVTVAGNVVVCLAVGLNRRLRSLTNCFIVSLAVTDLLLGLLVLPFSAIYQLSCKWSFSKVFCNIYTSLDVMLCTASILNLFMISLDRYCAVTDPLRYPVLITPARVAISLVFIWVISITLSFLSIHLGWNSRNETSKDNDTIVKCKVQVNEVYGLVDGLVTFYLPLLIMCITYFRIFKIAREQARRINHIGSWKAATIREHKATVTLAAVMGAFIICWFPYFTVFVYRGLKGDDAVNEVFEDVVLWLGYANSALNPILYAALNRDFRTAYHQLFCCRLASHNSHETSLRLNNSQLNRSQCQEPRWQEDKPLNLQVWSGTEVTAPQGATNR
The target of test [26] is Histamine H2 receptor (Cavia porcellus) (UniProt P47747). As to the kind of experiment: Evaluated for activity against Histamine H2 receptor in guinea pig atrium and represented as alpha. It counts as tissue-based. Conditions: Cardiac atrium.
The species entered for test [27] is Rattus norvegicus. Kind of test: Histamine level after treatment was determined in adbominal skin. The class given is functional.
The species named for test [28] is Rattus norvegicus. As to the kind of experiment: Histamine level after treatment was determined in cerebral cortex. The class given is functional.
The species named for test [29] is Rattus norvegicus. As to the kind of experiment: Histamine level after treatment was determined in colon. It counts as functional.
The species entered for test [30] is Rattus norvegicus. As to the kind of experiment: Histamine level after treatment was determined in hypothalamus. It counts as functional.
For test [31], the species on record is Rattus norvegicus. Kind of test: Histamine level after treatment was determined in spleen. It counts as functional.
Test [32] addresses T1, Histamine H3 receptor. Kind of test: Evaluated for antagonistic activity at histamine H3 receptor in rat cerebral cortex and is represented as Ki. It counts as functional, tissue-based.
Test [33] has as its target T1, Histamine H3 receptor. As to the kind of experiment: Evaluated for antagonist activity against histamine H3 receptor and is represented as -log Ki. The class given is functional.

This is an account of results in ChEMBL document CHEMBL1124960, “Histamine H3 ligands: just pharmacological tools or potential therapeutic agents?” (J Med Chem, 1990).

What is called KB is the equilibrium dissociation constant of an antagonist, usually derived from a functional assay. A low value points to higher antagonist affinity. In general, Ki refers to the dissociation constant of the complex between target and ligand, obtained from inhibition or displacement. A higher Ki goes with a looser hold on the target.

T1 sequence (Q9QYN8 whole entry): as the sequence (Q9QYN8 whole entry, looked up) above
Sequence of Histamine H2 receptor (Cavia porcellus) (P47747 whole entry): as the sequence (P47747 whole entry) above
Sequence of Histamine H3 receptor (Cavia porcellus) (Q9JI35 whole entry): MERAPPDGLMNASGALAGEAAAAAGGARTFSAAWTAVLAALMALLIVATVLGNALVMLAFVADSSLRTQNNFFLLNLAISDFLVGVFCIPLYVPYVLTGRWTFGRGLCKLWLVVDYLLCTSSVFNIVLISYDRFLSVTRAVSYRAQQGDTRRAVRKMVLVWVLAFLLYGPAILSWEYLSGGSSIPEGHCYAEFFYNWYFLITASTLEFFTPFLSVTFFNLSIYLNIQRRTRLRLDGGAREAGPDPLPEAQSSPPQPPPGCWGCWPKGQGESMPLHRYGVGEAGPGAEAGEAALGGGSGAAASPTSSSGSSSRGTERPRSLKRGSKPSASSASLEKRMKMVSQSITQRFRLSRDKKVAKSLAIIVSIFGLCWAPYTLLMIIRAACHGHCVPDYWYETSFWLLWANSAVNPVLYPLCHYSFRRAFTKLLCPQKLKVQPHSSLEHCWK

As to `N=C(N)Nc1nc(CSCC/N=C(\N)NCCCc2c[nH]cn2)cs1`, the pD2 is 8.2 in test [1] and 7.9 in [2]. The Activity in test [3] was determined as 1. In addition, the intrinsic activity in test [4] was determined as 1. This compound also yielded a Release in test [5] of 100%.

For `Cc1[nH]cnc1CSCCNC(=N)NCCCc1c[nH]cn1` [IMPROMIDINE], the H2 activity in test [1] is 1. The compound further registered an Activity in [6] of less than 0.001. Moreover, the HA release in the test filed under Rattus norvegicus [7] was determined as 38.4; in the test filed under Rattus norvegicus [8], 39.5; in the test filed under Rattus norvegicus [9], 25.5; in the test listed under Rattus norvegicus [10], 25.9; in the test listed under Rattus norvegicus [11], 25.3; in the test listed under Rattus norvegicus [12], 14.3. For the same compound, the figures for the HA release in the test filed under Rattus norvegicus [13], in the test filed under Rattus norvegicus [14] and in the test filed under Rattus norvegicus [15] were 35.1, 35.5 and 31.2, respectively. For the same compound, in test [16], the intrinsic activity came to 1.

Turning to `CN/C(=N\CCSCc1nc[nH]c1C)NC#N`, the antagonist equilibrium constant (KB) in test [17] was found to be 33 µM.

As for `CN(C)CCCSC(=N)N`, the Activity in test [18] is 71; in test [19], less than 0.0001. Besides, the Ratio_EC50 in the test listed under Rattus norvegicus [20] is given as less than 0.03.

With `Cn1cnc(CCN)c1` [N-METHYLHISTAMINE], the figures for the Activity in test [18] and in [19] were less than 0.1 and less than 0.01, respectively. In the test filed under Rattus norvegicus [20], the Ratio_EC50 is listed as less than 4.

In the case of `C/N=C(/NC#N)NCCSCc1csc(NC(=N)N)n1`, the figures for the KB in test [21] and in test [17] were 15 nM and greater than 12 µM, respectively.

In test [22], `CN(C)CC[C@@H](c1ccc(Cl)cc1)c1ccccn1` had a KB greater than 58 nM.

Consider `CNC(=C[N+](=O)[O-])NCCSCc1ccc(CN(C)C)o1`, for which the KB in test [23] stood at 1.2 µM.

In turn, `CC(C)NCCc1c[nH]cn1` displayed a pD2 in the test filed under Rattus norvegicus [24] of less than 5.5.

Turning to `Cc1nc[nH]c1CCN` [4-METHYLHISTAMINE], the values for the Activity in [18] and in test [19] were 43 and 0.23, respectively. Further, the Ratio_EC50 in the test listed under Rattus norvegicus [20] is less than 0.008.

`O=C(CCc1ccccc1)NCCc1cnc[nH]1`: the Ki at Histamine H3 receptor [25] was 0.631 µM.

Take `CNC(=S)NCCSCc1[nH]cnc1C`: the KB is 920 nM in test [21] and 2.5 µM in test [17].

Take `CSCC/N=C(\NC#N)NCCCc1c[nH]cn1` [VUF-8406]: on Histamine H2 receptor, the Kb was 0.0158 µM. This compound also registered an Activity in [26] of 0. Besides, in test [5], the Release came out at 100%.

Turning to `S=C(NC1CCCCC1)N1CCC(c2cnc[nH]2)CC1` [THIOPERAMIDE], the Histamine level in the test filed under Rattus norvegicus [27] came out at 75; in the test filed under Rattus norvegicus [28], 234; in the test listed under Rattus norvegicus [29], 80; in the test filed under Rattus norvegicus [30], 245; in the test listed under Rattus norvegicus [31], 123.

Compound `O=C(Cc1ccccc1)NCCc1c[nH]cn1` gave a Ki at Histamine H3 receptor [25] of 1 µM.

With `Cc1nc[nH]c1CSCCNC(N)=N[C@@H](C)Cc1cnc[nH]1`, the affinity on Histamine H3 receptor [32], expressed as Ki, was 0.04 µM.

As to `O=C(CCC(c1ccccc1)c1ccccc1)NCCc1c[nH]cn1`, on Histamine H3 receptor [33], the Ki is 1 µM.

In test [17], `CN(C)CC[C@H](c1ccc(Cl)cc1)c1ccccn1` registered a KB greater than 0.058 µM.
